Like-named read-outs stand apart in the source and are kept apart here.
Test: Phase 1/2a study, plasma pharmacokinetics of PF-07104091
Format: in vivo, human
Conditions: human, plasma, po; for Cmax: read-out: Cmax; for half-life: read-out: t1/2 (converted)
From the text: Blood samples will be collected for measurement of plasma concentrations of PF-07104091 as specified in the protocol. Samples will be used to evaluate the PK of PF-07104091. Samples collected for analyses of PF-07104091 plasma concentration may also be used to evaluate safety or efficacy aspects related to concerns arising during or after the study, for metabolite identification and/or evaluation of the bioanalytical method, or for other internal exploratory purposes.
Plasma PF-07104091 concentrations will be summarized descriptively (n, mean, standard deviation, coefficient of variation, median, minimum, maximum, geometric mean and its associated coefficient of variation) by dose, cycle, day and nominal time. Individual participant plasma PF-07104091 concentration-time data within a dose interval (with exception of the food effect substudy) after Cycle 1 Day 1 and Cycle 1 Day 15 will be analyzed using noncompartmental methods to determine single and multiple dose PK parameters. For participants in the food effect substudy, individual plasma PF-07104091 concentration-time data after Cycle 1 Day 15 and Cycle 1 Day 16 will be analyzed using noncompartmental methods to determine multiple dose PK parameters. For Part 1 of the study, single dose PK parameters to be estimated will include the Cmax, Tmax, and AUClast, and if data permit, t1/2, CL/F, and Vz/F. Multiple dose PK parameters to be estimated will include Cmax,ss, Tmax,ss, AUCT,ss, Cmin,ss, CL/F,ss, and if data permit, V/Fss, t1/2, and Rac. For Part 2 of the study (with exception of the food effect substudy), single dose PK parameters to be estimated will include Cmax, Tmax and AUClast. Multiple dose PK parameters to be estimated will include Cmax,ss, Tmax,ss, AUClast, Cmin,ss, and Rac. The single dose and steady state PK parameters will be summarized descriptively (n, mean, standard deviation, coefficient of variation, median, minimum, maximum, geometric mean and its associated coefficient of variation) by dose level, cycle and day. For participants in the food effect substudy, multiple dose PK parameters to be estimated will include Cmax,ss, AUCT,ss, Tmax,ss, Cmin,ss, CL/Fss, and if data permit, V/Fss and t1/2.
An ongoing Phase 1/2a, open-label, multicenter, multiple dose study is being conducted to determine the safety, tolerability, PK, PD, and preliminary anti-tumor activity of PF-07104091 as a single agent and in combination with endocrine therapy. PF-07104091 is administered orally twice daily (BID) during 28-day cycles.
Preliminary concentration-time data of PF-07104091 following single and multiple oral administration at 75 mg BID to 500 mg BID as monotherapy or in combination with endocrine therapy alone or in combination with palbociclib and endocrine therapy were available from 44 participants with advanced solid tumors and HR-positive HER2-negative advanced or metastatic breast cancer. The preliminary concentration-time data were analyzed by noncompartmental approach using actual PK sampling times.
[…] Individual values are listed when the number of participants with available parameters is less than 3.

[1] = 75 mg, Cycle 1 Day 1, single oral dose, 75 mg BID monotherapy, geometric mean (CV %)
[2] = 75 mg, Cycle 1 Day 15, repeated BID oral, 75 mg BID (1B), with palbociclib and fulvestrant, geometric mean (CV %)
[3] = 75 mg, Cycle 1 Day 15, repeated BID oral, 75 mg BID monotherapy, individual values
[4] = 150 mg, Cycle 1 Day 1, single oral dose, 150 mg BID monotherapy, geometric mean (CV %)
[5] = 150 mg, Cycle 1 Day 15, repeated BID oral, 150 mg BID monotherapy, geometric mean (CV %)
[6] = 225 mg, Cycle 1 Day 1, single oral dose, 225 mg BID monotherapy, geometric mean (CV %)
[7] = 225 mg, Cycle 1 Day 15, repeated BID oral, 225 mg BID monotherapy, geometric mean (CV %)
[8] = 300 mg, Cycle 1 Day 1, single oral dose, 300 mg BID monotherapy, geometric mean (CV %)
[9] = 300 mg, Cycle 1 Day 15, repeated BID oral, 300 mg BID monotherapy, geometric mean (CV %)
[10] = 375 mg, Cycle 1 Day 1, single oral dose, 375 mg BID monotherapy, individual values
[11] = 500 mg, Cycle 1 Day 1, single oral dose, 500 mg BID monotherapy, geometric mean (CV %)
[12] = 500 mg, Cycle 1 Day 15, repeated BID oral, 500 mg BID monotherapy, individual value, N = 1

COCc1cc(C(=O)Nc2cc([C@H]3CC[C@@H](OC(=O)NC(C)C)C3)[nH]n2)n(C)n1 [PF-07104091, (1R,3S)-3-[3-({[3-(methoxymethyl)-1-methyl-1H-pyrazol-5-yl]carbonyl}amino)-1H-pyrazol-5-yl]cyclopentyl propan-2-ylcarbamate]
AUC(0-t) [1]: 1750 ng·h/mL
Cmax [1]: 362 ng/mL
Tmax (75 mg, Cycle 1 Day 1, single oral dose, 75 mg BID monotherapy, median (range), read-out: Tmax): 2 h
half-life (75 mg, Cycle 1 Day 15, repeated BID oral, 75 mg BID (1B), with palbociclib and fulvestrant, arithmetic mean ± SD): 3.6 ± 0.9 h
AUC(0-t) [2]: 3080 ng·h/mL
Cmax [2]: 698 ng/mL
Tmax (75 mg, Cycle 1 Day 15, repeated BID oral, 75 mg BID (1B), with palbociclib and fulvestrant, median (range), read-out: Tmax): 1.2 h
AUC(0-t) [3]: 3580 ng·h/mL
Cmax [3]: 714 ng/mL
Tmax (75 mg, Cycle 1 Day 15, repeated BID oral, 75 mg BID monotherapy, individual values, read-out: Tmax): 1.1 h
AUC(0-t) [4]: 4480 ng·h/mL
Cmax [4]: 739 ng/mL
Tmax (150 mg, Cycle 1 Day 1, single oral dose, 150 mg BID monotherapy, median (range), read-out: Tmax): 2 h
half-life (150 mg, Cycle 1 Day 1, single oral dose, 150 mg BID monotherapy, n = 1): 2.8 h
AUC(0-t) [5]: 8020 ng·h/mL
Cmax [5]: 1320 ng/mL
Tmax (150 mg, Cycle 1 Day 15, repeated BID oral, 150 mg BID monotherapy, median (range), read-out: Tmax): 2.2 h
half-life (150 mg, Cycle 1 Day 15, repeated BID oral, 150 mg BID monotherapy, n = 1): 1.9 h
half-life (225 mg, Cycle 1 Day 1, single oral dose, 225 mg BID monotherapy, arithmetic mean ± SD): 2.2 ± 0.7 h
AUC(0-t) [6]: 6630 ng·h/mL
Cmax [6]: 1390 ng/mL
Tmax (225 mg, Cycle 1 Day 1, single oral dose, 225 mg BID monotherapy, median (range), read-out: Tmax): 3.9 h
half-life (225 mg, Cycle 1 Day 15, repeated BID oral, 225 mg BID monotherapy, arithmetic mean ± SD): 2.6 ± 0.9 h
AUC(0-t) [7]: 10700 ng·h/mL
Cmax [7]: 2350 ng/mL
Tmax (225 mg, Cycle 1 Day 15, repeated BID oral, 225 mg BID monotherapy, median (range), read-out: Tmax): 2 h
half-life (300 mg, Cycle 1 Day 1, single oral dose, 300 mg BID monotherapy, arithmetic mean ± SD): 2 ± 0.6 h
AUC(0-t) [8]: 9110 ng·h/mL
Cmax [8]: 1820 ng/mL
Tmax (300 mg, Cycle 1 Day 1, single oral dose, 300 mg BID monotherapy, median (range), read-out: Tmax): 2 h
half-life (300 mg, Cycle 1 Day 15, repeated BID oral, 300 mg BID monotherapy, arithmetic mean ± SD): 2.8 ± 0.2 h
AUC(0-t) [9]: 12500 ng·h/mL
Cmax [9]: 2570 ng/mL
Tmax (300 mg, Cycle 1 Day 15, repeated BID oral, 300 mg BID monotherapy, median (range), read-out: Tmax): 2.1 h
AUC(0-t) [10]: 11600 ng·h/mL
Cmax [10]: 2520 ng/mL
Tmax (375 mg, Cycle 1 Day 1, single oral dose, 375 mg BID monotherapy, individual values, read-out: Tmax): 4 h
half-life (375 mg, Cycle 1 Day 1, single oral dose, 375 mg BID monotherapy, n = 1): 1.5 h
AUC(0-t) [11]: 15200 ng·h/mL
Cmax [11]: 2980 ng/mL
Tmax (500 mg, Cycle 1 Day 1, single oral dose, 500 mg BID monotherapy, median (range), read-out: Tmax): 5.3 h
AUC(0-t) [12]: 21500 ng·h/mL
Cmax [12]: 4420 ng/mL
Tmax (500 mg, Cycle 1 Day 15, repeated BID oral, 500 mg BID monotherapy, individual value, N = 1, read-out: Tmax): 4 h
Tmax (oral administration at doses up to 300 mg BID, read-out: median Tmax): 0.5 to 4 h

— US20250127759A1, “METHODS AND DOSING REGIMENS COMPRISING A CDK2 INHIBITOR FOR THE TREATMENT OF CANCER” (PFIZER INC., priority 2021, published 2025)
